Reference: ChEMBL document CHEMBL1157780, “Synthesis, chiral high performance liquid chromatographic resolution and enantiospecific activity of a potent new geranylgeranyl transferase inhibitor, 2-hydroxy-3-imidazo[1,2-a]pyridin-3-yl-2-phosphonopropionic acid” (J Med Chem, 2010)
Each block holds one molecule with its values, some of them ahead of it. Activity calls are given as the source filed them. No cut-off for these calls is given here.

Legend:
J774 [1] = experiment: Inhibition of RGGT-mediated Rab11 prenylation in mouse J774 cells after 24 hrs by Western blot analysis; format: cell-based
J774 [2] = experiment: Inhibition of RGGT-mediated Rap1A prenylation in mouse J774 cells after 24 hrs by Western blot analysis; format: cell-based
[3] = target: T1, Geranylgeranyl pyrophosphate synthase (Homo sapiens) (UniProt O95749); experiment: Inhibition of GGPPS at 1mM after 10 mins using [14C]IPP as substrate by liquid scintillation counting
T1 sequence (whole entry): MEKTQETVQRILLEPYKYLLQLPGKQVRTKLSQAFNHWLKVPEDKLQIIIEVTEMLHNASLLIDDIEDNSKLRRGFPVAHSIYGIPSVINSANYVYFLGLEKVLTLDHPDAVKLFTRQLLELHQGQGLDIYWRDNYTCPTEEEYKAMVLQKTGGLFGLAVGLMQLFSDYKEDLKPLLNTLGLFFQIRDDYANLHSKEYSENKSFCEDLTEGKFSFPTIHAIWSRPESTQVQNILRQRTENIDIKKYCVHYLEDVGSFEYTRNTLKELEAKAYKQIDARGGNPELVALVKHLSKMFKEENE

[4] = target: Protein farnesyltransferase/geranylgeranyltransferase type-1 subunit alpha (Homo sapiens) (UniProt P49354); experiment: Inhibition of GGTase1 assessed as incorporation of [3H]GGPP into His-tagged canine rab1a at 1 mM after 30 mins
[5] = Inhibition of recombinant RGGT assessed as incorporation of [3H]GGPP into His-tagged canine rab1a after 30 mins
[6] = target: T2, Geranylgeranyl transferase type-2 subunit alpha (Homo sapiens) (UniProt Q92696); experiment: Inhibition of rabbit osteoclast rab11 prenylation after 24 hrs by Western blot analysis; conditions: Oryctolagus cuniculus; target entry is the homologue from another species
T2 sequence (whole entry): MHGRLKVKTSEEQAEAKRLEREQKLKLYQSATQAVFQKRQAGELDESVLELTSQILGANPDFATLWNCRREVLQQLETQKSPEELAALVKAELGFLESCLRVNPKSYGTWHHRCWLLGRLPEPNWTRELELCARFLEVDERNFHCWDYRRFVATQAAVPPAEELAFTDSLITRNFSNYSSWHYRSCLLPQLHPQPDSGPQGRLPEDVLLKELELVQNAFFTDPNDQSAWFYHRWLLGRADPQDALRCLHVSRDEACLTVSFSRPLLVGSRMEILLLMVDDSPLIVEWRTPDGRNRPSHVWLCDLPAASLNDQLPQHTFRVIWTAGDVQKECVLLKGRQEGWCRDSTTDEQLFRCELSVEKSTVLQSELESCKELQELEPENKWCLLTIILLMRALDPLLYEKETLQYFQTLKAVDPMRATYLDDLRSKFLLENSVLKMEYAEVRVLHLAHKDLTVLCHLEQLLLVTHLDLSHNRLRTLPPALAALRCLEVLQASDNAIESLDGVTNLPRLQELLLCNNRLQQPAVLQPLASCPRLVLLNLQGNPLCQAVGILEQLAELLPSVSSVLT

[7] = target: T3, Farnesyl pyrophosphate synthase (Homo sapiens) (UniProt P14324); experiment: Inhibition of human FPPS at 10 uM after 10 mins using [14C]IPP as substrate
T3 sequence (whole entry): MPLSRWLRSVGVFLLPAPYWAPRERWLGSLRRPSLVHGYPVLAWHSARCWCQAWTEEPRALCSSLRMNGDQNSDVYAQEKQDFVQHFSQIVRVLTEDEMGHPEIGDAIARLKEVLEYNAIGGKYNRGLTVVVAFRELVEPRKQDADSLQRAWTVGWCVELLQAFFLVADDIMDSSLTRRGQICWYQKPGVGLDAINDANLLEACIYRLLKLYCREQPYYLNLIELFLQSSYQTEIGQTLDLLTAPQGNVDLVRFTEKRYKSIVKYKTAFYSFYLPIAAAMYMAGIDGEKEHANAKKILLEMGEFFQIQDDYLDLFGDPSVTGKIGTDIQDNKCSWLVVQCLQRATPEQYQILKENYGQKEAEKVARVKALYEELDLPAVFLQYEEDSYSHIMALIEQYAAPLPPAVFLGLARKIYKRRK

[8] = target: T4, Farnesyl pyrophosphate synthase (Homo sapiens, UniProt P14324); experiment: Inhibition of human FPPS after 10 mins using [14C]IPP as substrate by liquid scintillation counting
T4 sequence (P14324 whole entry): T3 sequence (whole entry)

J774 [9] = experiment: Cytotoxicity against mouse J774 cells assessed as cell viability after 48 hrs by alamar blue assay; format: functional, cell-based
Osteoclast = experiment: Antiresorptive activity in rabbit osteoclasts assessed as number of actin rings after 48 hrs using TRITC-phelloidin stain relative to control; format: functional, cell-based; conditions: Oryctolagus cuniculus
Rattus norvegicus = organism: Rattus norvegicus; experiment: Antiresorptive activity in Schenk growing rat model assessed as inhibition of bone resorption; format: functional
[10] = Inhibition of recombinant RGGT assessed as incorporation of [3H]GGPP into His-tagged canine rab1a after 20 mins
[11] = Inhibition of GGTase1 assessed as incorporation of [3H]GGPP into His-tagged canine rab1a after 30 mins
[12] = Inhibition of recombinant RGGT by uncompetitive inhibition based Lineweaver-Burke plot using Rab1a as substrate

Activity [3]: inactive | Activity [4]: inactive
SMILES: O=C(O)C(O)(Cc1cnc2ccccn12)P(=O)(O)O (single isomer, unassigned; (+))
LED (J774 [1]): 3 µM | LED (J774 [2]): 100 µM

IC50 [5]: 150 µM
SMILES: O=C(O)C(O)(Cc1cccnc1)P(=O)(O)O (single isomer, unassigned; enantiomer 2) [listing 1 of 2 here]

Activity [6]: 12.5 µM | Activity [7]: inactive
SMILES: O=C(O)C(O)(Cc1cnc2ccccn12)P(=O)(O)O (racemic)
LED (J774 [1]): 3 µM | LED (J774 [2]): > 100 µM

IC50 [8]: > 10 µM | IC50 [5]: 12.5 µM | IC50 (Osteoclast): 330 µM
SMILES: O=C(O)C(O)(Cc1cnc2ccccn12)P(=O)(O)O (racemic) [(2-HYDROXY-3-IMIDAZO[1,2-A]PYRIDIN-3-YL-2-PHOSPHONOPROPIONIC ACID (ENANTIONMERS)]
IC50 (J774 [9]; j774): 47 µM | LED (Rattus norvegicus): 2.8 mg/kg

IC50 [5]: > 1000 µM
SMILES: O=P(O)(O)C(O)(Cc1cnc2ccccn12)P(=O)(O)O [MINODRONIC ACID]
IC50 (J774 [9]; Mus musculus, J774, 48 h): 3 µM | LED (J774 [1]): 3 µM | LED (J774 [2]): 3 µM

IC50 [5]: 67.7 µM
SMILES: O=C(O)C(O)(Cc1cnc2ccccn12)P(=O)(O)O (single isomer, unassigned; enantiomer 2) [(2-HYDROXY-3-IMIDAZO[1,2-A]PYRIDIN-3-YL-2-PHOSPHONOPROPIONIC ACID (ENANTIONMERS)]
IC50 (J774 [9]; j774): > 800 µM

IC50 [5]: 1.1 µM | IC50 [10]: 1.3 µM | IC50 [11]: > 800 µM | Ki [12]: 0.211 µM
SMILES: O=C(O)C(O)(Cc1cnc2ccccn12)P(=O)(O)O (single isomer, unassigned; (+)) [(2-HYDROXY-3-IMIDAZO[1,2-A]PYRIDIN-3-YL-2-PHOSPHONOPROPIONIC ACID (ENANTIONMERS)]
IC50 (J774 [9]; j774): 31 µM

SMILES: O=C(O)C(O)(Cc1cccnc1)P(=O)(O)O (single isomer, unassigned; enantiomer 1) [listing 1 of 2 here]
LED (J774 [1]): 63 µM

Activity [3]: inactive | Activity [4]: inactive
SMILES: O=C(O)C(O)(Cc1cnc2ccccn12)P(=O)(O)O (single isomer, unassigned; enantiomer 2)
LED (J774 [1]): 50 µM | LED (J774 [2]): 4000 µM

SMILES: O=P(O)(O)C(O)(Cc1cccnc1)P(=O)(O)O
LED (J774 [1]): 12 µM | LED (J774 [2]): 12 µM

Activity [6]: 200 µM | Activity [7]: inactive
SMILES: O=C(O)C(O)(Cc1cccnc1)P(=O)(O)O (racemic) [listing 1 of 2 here]
LED (J774 [1]): 100 µM

IC50 [8]: > 1000 µM | IC50 [5]: 51.7 µM | IC50 [10]: 32 µM | IC50 [11]: > 2000 µM | Ki [12]: 33.6 µM | IC50 (Osteoclast): 970 µM
SMILES: O=C(O)C(O)(Cc1cccnc1)P(=O)(O)O (racemic) [listing 2 of 2 here]
IC50 (J774 [9]; Mus musculus, J774, 48 h): 2800 µM | LED (Rattus norvegicus): 12 mg/kg

IC50 [5]: 39 µM
SMILES: O=C(O)C(O)(Cc1cccnc1)P(=O)(O)O (single isomer, unassigned; enantiomer 1) [listing 2 of 2 here]

SMILES: O=C(O)C(O)(Cc1cccnc1)P(=O)(O)O (single isomer, unassigned; enantiomer 2) [listing 2 of 2 here]
LED (J774 [1]): 250 µM
